Results on 29 molecules are retold here after patent publication US12065436B2, “Cardiac sarcomere inhibitors” (Cytokinetics, Inc., priority 2018, dated 2024).

The target of this assay is bovine cardiac myofibrils (full-length cardiac myosin ATPase in the native sarcomere) (Bos taurus (Bovine), UniProt Q9BE39). Description: Skinned bovine cardiac myofibril ATPase assay (PK/LDH-coupled). In kind it is biochemical. As to conditions: Ca2+ activating to 75% of maximal rate; for CDMF75 IC15: concentration giving 15% inhibition; for pIC50: read-out: CDMF75 IC50. In a few lines: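 Inhibition of steady-state ATPase read at 340 nm through a PK/LDH-coupled NADH system (0.5 mM NADH, 1.5 mM PEP). Detergent-skinned bovine cardiac myofibrils, 1 mg/mL, were tested at pH 6.8 in PIPES/MgCl2 with 50 μM ATP and calcium adjusted to give pCa50 or pCa75 activation.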
bovine cardiac myofibrils (full-length cardiac myosin ATPase in the native sarcomere), sequence (Q9BE39 whole entry): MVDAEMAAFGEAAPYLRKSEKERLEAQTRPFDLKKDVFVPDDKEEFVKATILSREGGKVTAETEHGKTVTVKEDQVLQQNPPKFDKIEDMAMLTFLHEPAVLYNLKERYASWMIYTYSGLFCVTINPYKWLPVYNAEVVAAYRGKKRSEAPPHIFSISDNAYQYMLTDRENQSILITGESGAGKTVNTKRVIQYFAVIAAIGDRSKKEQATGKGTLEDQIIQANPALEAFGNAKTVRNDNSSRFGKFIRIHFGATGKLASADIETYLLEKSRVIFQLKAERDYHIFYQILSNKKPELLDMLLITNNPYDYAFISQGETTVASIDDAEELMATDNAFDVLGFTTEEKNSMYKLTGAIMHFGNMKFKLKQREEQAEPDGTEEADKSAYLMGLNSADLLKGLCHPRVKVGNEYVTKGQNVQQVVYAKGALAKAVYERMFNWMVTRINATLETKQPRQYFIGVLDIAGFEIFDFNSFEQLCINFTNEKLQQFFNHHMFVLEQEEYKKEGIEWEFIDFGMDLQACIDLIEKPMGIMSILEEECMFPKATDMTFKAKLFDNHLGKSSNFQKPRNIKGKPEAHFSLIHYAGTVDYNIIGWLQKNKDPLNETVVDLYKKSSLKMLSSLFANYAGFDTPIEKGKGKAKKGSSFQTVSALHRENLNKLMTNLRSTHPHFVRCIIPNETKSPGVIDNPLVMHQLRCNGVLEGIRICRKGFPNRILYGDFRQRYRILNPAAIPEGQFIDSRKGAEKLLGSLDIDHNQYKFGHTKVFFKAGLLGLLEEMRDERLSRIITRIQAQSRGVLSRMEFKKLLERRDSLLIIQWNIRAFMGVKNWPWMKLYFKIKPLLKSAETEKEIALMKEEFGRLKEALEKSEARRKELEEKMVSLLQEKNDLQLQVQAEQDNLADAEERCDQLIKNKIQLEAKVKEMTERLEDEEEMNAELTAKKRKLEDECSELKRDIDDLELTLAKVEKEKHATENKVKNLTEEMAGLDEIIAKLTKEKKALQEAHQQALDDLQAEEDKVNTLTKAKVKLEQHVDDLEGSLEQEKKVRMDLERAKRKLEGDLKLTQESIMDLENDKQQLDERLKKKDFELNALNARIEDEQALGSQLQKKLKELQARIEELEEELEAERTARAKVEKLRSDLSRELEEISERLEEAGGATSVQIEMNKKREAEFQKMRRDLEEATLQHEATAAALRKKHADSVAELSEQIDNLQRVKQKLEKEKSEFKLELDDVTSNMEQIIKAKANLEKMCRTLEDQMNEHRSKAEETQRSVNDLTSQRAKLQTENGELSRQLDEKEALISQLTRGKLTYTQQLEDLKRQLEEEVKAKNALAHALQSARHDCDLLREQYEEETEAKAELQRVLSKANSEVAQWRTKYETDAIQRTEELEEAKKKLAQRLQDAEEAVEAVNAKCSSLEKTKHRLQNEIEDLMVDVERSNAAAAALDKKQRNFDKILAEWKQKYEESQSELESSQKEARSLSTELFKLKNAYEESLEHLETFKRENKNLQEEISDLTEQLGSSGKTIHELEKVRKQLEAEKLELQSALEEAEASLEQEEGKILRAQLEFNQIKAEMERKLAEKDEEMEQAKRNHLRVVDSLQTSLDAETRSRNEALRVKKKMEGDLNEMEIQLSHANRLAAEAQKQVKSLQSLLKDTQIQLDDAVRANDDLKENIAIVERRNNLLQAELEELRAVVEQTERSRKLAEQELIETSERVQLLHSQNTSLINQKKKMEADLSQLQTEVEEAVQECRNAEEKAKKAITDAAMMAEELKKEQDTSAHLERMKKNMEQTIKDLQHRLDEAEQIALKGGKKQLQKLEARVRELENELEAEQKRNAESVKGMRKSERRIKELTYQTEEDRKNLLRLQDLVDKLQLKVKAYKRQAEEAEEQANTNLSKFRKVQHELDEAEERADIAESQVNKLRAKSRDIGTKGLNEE
bovine cardiac myofibrils (full-length cardiac myosin ATPase in the native sarcomere), sequence (P85100 whole entry partner): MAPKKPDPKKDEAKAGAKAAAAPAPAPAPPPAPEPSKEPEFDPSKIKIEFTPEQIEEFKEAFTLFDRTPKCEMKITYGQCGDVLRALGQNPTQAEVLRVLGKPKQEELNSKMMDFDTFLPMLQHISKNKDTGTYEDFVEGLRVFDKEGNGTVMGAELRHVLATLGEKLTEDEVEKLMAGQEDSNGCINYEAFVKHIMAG
bovine cardiac myofibrils (full-length cardiac myosin ATPase in the native sarcomere), sequence (Q3SZE5 whole entry partner): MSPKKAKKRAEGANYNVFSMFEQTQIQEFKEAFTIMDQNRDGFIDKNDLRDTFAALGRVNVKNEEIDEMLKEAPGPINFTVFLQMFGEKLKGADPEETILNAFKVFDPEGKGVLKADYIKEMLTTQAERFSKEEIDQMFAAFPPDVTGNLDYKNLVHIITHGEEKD

SMILES strings stand for the structures. pIC50: −log10 of the molar value. Some results are limits rather than exact numbers.

In general, pIC50 refers to the negative decadic logarithm of the IC50, by convention in mol/L. With `[2H]C([2H])([2H])c1nc(-c2ccc3c(c2)CC[C@H]3NC(=O)c2ccnn2C)no1` [Compound 242, (R)-1-methyl-N-(5-(5-(methyl-d3)-1,2,4-oxadiazol-3-yl)-2,3-dihydro-1H-inden-1-yl)-1H-pyrazole-5-carboxamide], the “CDMF75 IC15” value amounted to 0.5 µM and the pIC50 was 5.82.

As for `CCc1nc(-c2ccc3c(c2)CC[C@H]3NC(=O)C2(C)CC2)no1` [Compound 329, (R)-N-(5-(5-ethyl-1,2,4-oxadiazol-3-yl)-2,3-dihydro-1H-inden-1-yl)-1-methylcyclopropane-1-carboxamide], the “CDMF75 IC15” value was determined as 1.7 µM and the pIC50 is 5.15.

On to `Cc1cc(C(=O)N[C@@H]2CCc3cc(-c4noc(C)n4)ccc32)n(C)n1` [Compound 106, (R)-1,3-dimethyl-N-(5-(5-methyl-1,2,4-oxadiazol-3-yl)-2,3-dihydro-1H-inden-1-yl)-1H-pyrazole-5-carboxamide], for which the “CDMF75 IC15” value amounted to 0.8 µM and the pIC50 was 5.55.

In the case of `CCc1nc(-c2ccc3c(c2)CC[C@H]3NC(=O)c2cnon2)no1` [Compound 615, (R)-N-(5-(5-ethyl-1,2,4-oxadiazol-3-yl)-2,3-dihydro-1H-inden-1-yl)-1,2,5-oxadiazole-3-carboxamide], the “CDMF75 IC15” value stood at 0.4 µM and the pIC50 is 5.85.

In the case of `CC(C)NC(=O)N[C@@H]1CCc2cc(-c3noc(C(F)F)n3)ccc21` [Compound 292, (R)-1-(5-(5-(difluoromethyl)-1,2,4-oxadiazol-3-yl)-2,3-dihydro-1H-inden-1-yl)-3-isopropylurea], the “CDMF75 IC15” value was 39.2 µM and the pIC50 is less than 4.41.

For `COCc1nc(-c2ccc3c(c2)OC[C@H]3NC(=O)c2cccc(CO)c2)no1` [Compound 712, (S)-3-(hydroxymethyl)-N-(6-(5-(methoxymethyl)-1,2,4-oxadiazol-3-yl)-2,3-dihydrobenzofuran-3-yl)benzamide], the “CDMF75 IC15” value was determined as 0.5 µM and the pIC50 was 5.62.

In the case of `Cc1nc(-c2ccc3c(c2)CCC3NC(=O)c2oncc2C)no1` (stereo not shown) [Compound 88, 4-methyl-N-(5-(5-methyl-1,2,4-oxadiazol-3-yl)-2,3-dihydro-1H-inden-1-yl)isoxazole-5-carboxamide], the “CDMF75 IC15” value amounted to 0.7 µM and the pIC50 was 5.60.

As to `CCc1nc(-c2ccc3c(c2)OC[C@H]3NC(=O)NCCO)no1` [Compound 745, (S)-1-(6-(5-ethyl-1,2,4-oxadiazol-3-yl)-2,3-dihydrobenzofuran-3-yl)-3-(2-hydroxyethyl)urea], the “CDMF75 IC15” value was determined as 0.8 µM and the pIC50 is 5.42.

In the case of `Cc1noc(-c2ccc3c(c2)OC[C@H]3NC(=O)c2nnn(C)n2)n1` [Compound 344, (S)-2-methyl-N-(6-(3-methyl-1,2,4-oxadiazol-5-yl)-2,3-dihydrobenzofuran-3-yl)-2H-tetrazole-5-carboxamide], the “CDMF75 IC15” value is 8.6 µM and the negative logarithm of the IC50 (pIC50) is less than 4.41.

With `CCc1nc(-c2ccc3c(c2)CC[C@H]3NC(=O)c2nnc(C)s2)no1` [Compound 619, (R)-N-(5-(5-ethyl-1,2,4-oxadiazol-3-yl)-2,3-dihydro-1H-inden-1-yl)-5-methyl-1,3,4-thiadiazole-2-carboxamide], the “CDMF75 IC15” value was determined as 0.6 µM and the negative-log IC50 (pIC50) was 5.60.

Consider `COCc1nc(-c2ccc3c(c2)CC[C@H]3NC(=O)c2ccnc(C(F)F)c2)no1` [Compound 731, (R)-2-(difluoromethyl)-N-(5-(5-(methoxymethyl)-1,2,4-oxadiazol-3-yl)-2,3-dihydro-1H-inden-1-yl)isonicotinamide], for which the “CDMF75 IC15” value was found to be 1.1 µM and the pIC50 was 5.28.

Turning to `[2H]C([2H])([2H])c1noc(-c2ccc3c(c2)OC[C@H]3NC(=O)c2nnn(C)n2)n1` [Compound 342, (S)-2-methyl-N-(6-(3-(methyl-d3)-1,2,4-oxadiazol-5-yl)-2,3-dihydrobenzofuran-3-yl)-2H-tetrazole-5-carboxamide], the “CDMF75 IC15” value stood at 8.0 µM and the pIC50 is less than 4.41.

Take `CC(C)c1nc(-c2ccc3c(c2)CC[C@H]3NC(=O)c2nnn(Cc3ccccc3)n2)no1` [Compound 500, (R)-2-benzyl-N-(5-(5-isopropyl-1,2,4-oxadiazol-3-yl)-2,3-dihydro-1H-inden-1-yl)-2H-tetrazole-5-carboxamide]: the “CDMF75 IC15” value came out at 1.0 µM and the negative logarithm of the IC50 (pIC50) is 5.19.

For the molecule `Cc1nn(C)cc1C(=O)N[C@@H]1COc2cc(-c3noc(C(F)F)n3)ccc21` [Compound 208, (S)-N-(6-(5-(difluoromethyl)-1,2,4-oxadiazol-3-yl)-2,3-dihydrobenzofuran-3-yl)-1,3-dimethyl-1H-pyrazole-4-carboxamide], the “CDMF75 IC15” value was found to be 0.5 µM and the pIC50 was 5.80.

`COCCCn1cc(C(=O)N[C@@H]2CCc3cc(-c4noc(C5CC5)n4)ccc32)cn1` [Compound 600, (R)-N-(5-(5-cyclopropyl-1,2,4-oxadiazol-3-yl)-2,3-dihydro-1H-inden-1-yl)-1-(3-methoxypropyl)-1H-pyrazole-4-carboxamide]: the “CDMF75 IC15” value amounted to 3.5 µM and the pIC50 was 4.78.

Regarding `COCCn1cc(C(=O)N[C@@H]2CCc3cc(-c4noc(COC)n4)ccc32)cn1` [Compound 512, (R)-1-(2-methoxyethyl)-N-(5-(5-(methoxymethyl)-1,2,4-oxadiazol-3-yl)-2,3-dihydro-1H-inden-1-yl)-1H-pyrazole-4-carboxamide], the “CDMF75 IC15” value was 4.5 µM and the pIC50 was 4.74.

For the molecule `CCc1nc(-c2ccc3c(c2)CC[C@H]3NC(=O)c2cnn(CC(O)CO)c2)no1` (stereo partly drawn) [Compound 485, 1-(2,3-dihydroxypropyl)-N-((R)-5-(5-ethyl-1,2,4-oxadiazol-3-yl)-2,3-dihydro-1H-inden-1-yl)-1H-pyrazole-4-carboxamide], the “CDMF75 IC15” value amounted to 1.2 µM and the pIC50 was 5.39.

`CCc1nc(-c2ccc3c(c2)CC[C@H]3NC(=O)c2ccn(CCOC)n2)no1` [Compound 602, (R)-N-(5-(5-ethyl-1,2,4-oxadiazol-3-yl)-2,3-dihydro-1H-inden-1-yl)-1-(2-methoxyethyl)-1H-pyrazole-3-carboxamide]: the “CDMF75 IC15” value turned out to be 4.1 µM and the pIC50 is 4.77.

With `CCc1cc(-c2ccc3c(c2)OC[C@H]3NC(=O)c2ccnn2C)no1` [Compound 421, (S)-N-(6-(5-ethylisoxazol-3-yl)-2,3-dihydrobenzofuran-3-yl)-1-methyl-1H-pyrazole-5-carboxamide], the “CDMF75 IC15” value is 0.3 µM and the pIC50 is 6.10.

`COCCOC(=O)N[C@@H]1CCc2cc(-c3noc(C4CC4)n3)ccc21` [Compound 327, 2-methoxyethyl (R)-(5-(5-cyclopropyl-1,2,4-oxadiazol-3-yl)-2,3-dihydro-1H-inden-1-yl)carbamate]: the “CDMF75 IC15” value was 1.8 µM and the pIC50 is 5.09.

As for `CCc1nc(-c2ccc3c(c2)CC[C@H]3NC(=O)c2cc(O)no2)no1` [Compound 634, (R)-N-(5-(5-ethyl-1,2,4-oxadiazol-3-yl)-2,3-dihydro-1H-inden-1-yl)-3-hydroxyisoxazole-5-carboxamide], the “CDMF75 IC15” value is 0.5 µM and the pIC50 is 5.68.

For the molecule `CCc1nc(-c2ccc3c(c2)CC[C@H]3NC(=O)c2cnccc2C)no1` [Compound 627, (R)-N-(5-(5-ethyl-1,2,4-oxadiazol-3-yl)-2,3-dihydro-1H-inden-1-yl)-4-methylnicotinamide], the “CDMF75 IC15” value stood at 3.5 µM and the pIC50 was 4.82.

`CCNC(=O)N[C@@H]1CCc2cc(-c3noc(C(F)F)n3)ccc21` [Compound 296, (R)-1-(5-(5-(difluoromethyl)-1,2,4-oxadiazol-3-yl)-2,3-dihydro-1H-inden-1-yl)-3-ethylurea]: the “CDMF75 IC15” value stood at 5.8 µM and the pIC50 is less than 4.41.

In the case of `[2H]C([2H])([2H])c1nc(-c2ccc3c(c2)CC[C@H]3NC(=O)c2ocnc2C)no1` [Compound 251, (R)-4-methyl-N-(5-(5-(methyl-d3)-1,2,4-oxadiazol-3-yl)-2,3-dihydro-1H-inden-1-yl)oxazole-5-carboxamide], the “CDMF75 IC15” value came out at 0.5 µM and the pIC50 was 5.82.

Consider `CCc1nc(-c2ccc3c(c2)CC[C@H]3NC(=O)c2cccc(CO)c2)no1` [Compound 653, (R)-N-(5-(5-ethyl-1,2,4-oxadiazol-3-yl)-2,3-dihydro-1H-inden-1-yl)-3-(hydroxymethyl)benzamide], for which the “CDMF75 IC15” value was 0.2 µM and the pIC50 is 6.15.

Consider `Cc1cc(C(=O)N[C@@H]2CCc3cc(-c4noc(C(C)C)n4)ccc32)ccn1` [Compound 392, (R)-N-(5-(5-isopropyl-1,2,4-oxadiazol-3-yl)-2,3-dihydro-1H-inden-1-yl)-2-methylisonicotinamide], for which the “CDMF75 IC15” value is 0.9 µM and the pIC50 was 5.57.

On to `Cc1nc(C)c(C(=O)NC2CCc3cc(-c4noc(C(F)F)n4)ccc32)o1` (stereo not shown) [Compound 19, N-(5-(5-(difluoromethyl)-1,2,4-oxadiazol-3-yl)-2,3-dihydro-1H-inden-1-yl)-2,4-dimethyloxazole-5-carboxamide], for which the “CDMF75 IC15” value stood at 1.3 µM and the negative logarithm of the IC50 (pIC50) is 5.34.

With `[2H]C([2H])([2H])c1noc(-c2ccc3c(c2)CC[C@H]3NC(=O)c2ccnn2C)n1` [Compound 273, (R)-1-methyl-N-(5-(3-(methyl-d3)-1,2,4-oxadiazol-5-yl)-2,3-dihydro-1H-inden-1-yl)-1H-pyrazole-5-carboxamide], the “CDMF75 IC15” value turned out to be 0.7 µM and the pIC50 was 5.62.

`CCc1nc(-c2ccc3c(c2)CC[C@H]3NC(=O)c2ccc(C)cn2)no1` [Compound 642, (R)-N-(5-(5-ethyl-1,2,4-oxadiazol-3-yl)-2,3-dihydro-1H-inden-1-yl)-5-methylpicolinamide]: the “CDMF75 IC15” value worked out at 1.4 µM and the negative logarithm of the IC50 (pIC50) is 5.24.
